Measured values as given in publication PMC8251769, “Phosphonate as a Stable Zinc‐Binding Group for “Pathoblocker” Inhibitors of Clostridial Collagenase H (ColH)” (Chemmedchem, 2021).

The compounds below were run against ColH-PD (peptidase domain of collagenase H) (Hathewaya histolytica, UniProt Q46085) (assay: biochemical). Conditions: not given.
Chain of ColH-PD (peptidase domain of collagenase H) (Q46085 331-721 limits assumed): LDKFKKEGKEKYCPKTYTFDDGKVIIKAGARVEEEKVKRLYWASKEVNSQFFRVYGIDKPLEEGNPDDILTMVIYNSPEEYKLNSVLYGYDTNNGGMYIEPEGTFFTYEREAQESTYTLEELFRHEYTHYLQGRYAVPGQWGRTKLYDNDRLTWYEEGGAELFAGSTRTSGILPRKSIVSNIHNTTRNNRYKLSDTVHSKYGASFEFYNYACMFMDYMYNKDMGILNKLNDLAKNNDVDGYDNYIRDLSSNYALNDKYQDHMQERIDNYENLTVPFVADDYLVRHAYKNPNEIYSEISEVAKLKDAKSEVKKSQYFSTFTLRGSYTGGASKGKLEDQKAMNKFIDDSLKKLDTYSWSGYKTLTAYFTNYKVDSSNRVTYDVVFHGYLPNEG

| Compound | IC50 |
| --- | --- |
| NC(=O)CC(=O)Nc1ccccc1 [compound 8, N^1-Phenylmalonamide] | > 500 µM |
| O=C(O)CC(=O)Nc1ccccc1 [compound 9, 3-Oxo-3-(phenylamino)propanoic acid] | > 500 µM |
| O=C(O)CCC(=O)Nc1ccccc1 [compound 10, 4-Oxo-4-(phenylamino)butanoic acid] | > 500 µM |
| O=C(CC(=O)Nc1ccccc1)NO [compound 11, N^1-Hydroxy-N^3-phenylmalonamide] | ~500 µM |
| CC(=O)c1ccc(NC(=O)Cn2ccnn2)cc1 [compound 14, N-(4-Acetylphenyl)-2-(1H-1,2,3-triazol-1-yl)acetamide] | > 500 µM |
| CC(=O)c1ccc(NC(=O)Cn2ccnc2)cc1 [compound 15, N-(4-Acetylphenyl)-2-(1H-imidazol-1-yl)acetamide] | 448 ± 33 µM |
| CC(=O)c1ccc(NC(=O)Cn2cncn2)cc1 [compound 16, N-(4-Acetylphenyl)-2-(1H-1,2,4-triazol-1-yl)acetamide] | > 500 µM |
| CC(=O)c1ccc(NC(=O)Cn2cnnn2)cc1 [compound 17, N-(4-Acetylphenyl)-2-(1H-tetrazol-1-yl)acetamide] | > 500 µM |
| CC(=O)c1ccc(NC(=O)Cn2ncnn2)cc1 [compound 18, N-(4-acetylphenyl)-2-(2H-tetrazol-2-yl)acetamide] | > 500 µM |
| CC(=O)c1ccc(NC(=O)Cc2nn[nH]n2)cc1 [compound 19, N-(4-Acetylphenyl)-2-(2H-tetrazol-5-yl)acetamide] | 22 ± 1 µM |
| CC(=O)c1ccc(NC(=O)Cc2c[nH]cn2)cc1 [compound 20, N-(4-Acetylphenyl)-2-(1H-imidazol-4-yl)acetamide] | > 500 µM |
| CC(=O)c1ccc(NC(=O)CC#N)cc1 [compound 23, N-(4-Acetylphenyl)-2-cyanoacetamide] | > 500 µM |
| CC(=O)c1ccc(NC(=O)CS(=O)(=O)O)cc1 [compound 24, Sodium 2-((4-acetylphenyl)amino)-2-oxoethane-1-sulfonate] | > 500 µM |
| CC(=O)c1ccc(NC(=O)CP(C)(=O)O)cc1 [compound 25, Sodium (2-((4-acetylphenyl)amino)-2-oxoethyl)(methyl)phosphinate] | > 500 µM |
| CCOP(C)(=O)CC(=O)Nc1ccc(C(C)=O)cc1 (centres unmarked) [compound 27, Ethyl (2-((4-acetylphenyl)amino)-2-oxoethyl)(methyl)phosphinate] | > 500 µM |

Same assay, conditions: read-out: IC50

| Compound | IC50 |
| --- | --- |
| CC(=O)c1ccc(NC(=O)CP(=O)(O)O)cc1 [compound 26, Disodium (2-((4-acetylphenyl)amino)-2-oxoethyl)phosphonate] | 7 ± 1 µM |

Each compound was assayed against T1, MMP-14 (Homo sapiens, UniProt P50281) (assay: SensoLyte […] generic MMP activity kit). Conditions: read-out: Inhibition [%] at 100 μM compound^[a] / 26 (phosphonate).
T1 construct: gene MMP14; catalytic domain, AnaSpec
Format: biochemical

| Compound | inhibition at 100 µM |
| --- | --- |
| CC(=O)c1ccc(NC(=O)CP(=O)(O)O)cc1 [compound 26, Disodium (2-((4-acetylphenyl)amino)-2-oxoethyl)phosphonate] | 47 ± 13% |

The compounds below were run against T2, HDAC-8 (Homo sapiens, UniProt Q9BY41) (assay: fluorescence inhibitor screening kit). Conditions: read-out: Inhibition [%] at 100 μM compound^[a] / 5 a (thiol).
T2 construct: gene HDAC8
T2 sequence (Q9BY41 1-377): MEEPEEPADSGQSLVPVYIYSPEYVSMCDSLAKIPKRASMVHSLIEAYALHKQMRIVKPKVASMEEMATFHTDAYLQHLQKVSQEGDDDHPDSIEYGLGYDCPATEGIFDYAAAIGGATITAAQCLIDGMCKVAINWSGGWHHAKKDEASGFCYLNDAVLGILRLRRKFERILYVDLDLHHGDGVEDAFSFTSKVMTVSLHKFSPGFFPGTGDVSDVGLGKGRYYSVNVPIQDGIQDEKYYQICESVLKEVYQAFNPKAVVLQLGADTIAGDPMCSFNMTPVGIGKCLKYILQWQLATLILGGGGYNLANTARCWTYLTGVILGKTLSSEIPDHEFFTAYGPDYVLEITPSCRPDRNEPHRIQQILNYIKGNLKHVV
Format: biochemical
Source text: fluorescence inhibitor screening kit on HDAC-8

| Compound | inhibition at 100 µM |
| --- | --- |
| CC(=O)c1ccc(NC(=O)CS)cc1 [5a, thiol 5 a] | 48 ± 5% |

What follows are compounds tested against T3, MMP-8 (Homo sapiens, UniProt P22894) (assay: SensoLyte […] generic MMP activity kit). Conditions: read-out: Inhibition [%] at 100 μM compound^[a] / 26 (phosphonate).
T3 construct: gene MMP8; catalytic domain, AnaSpec
T3 sequence (P22894 100-262 limits assumed): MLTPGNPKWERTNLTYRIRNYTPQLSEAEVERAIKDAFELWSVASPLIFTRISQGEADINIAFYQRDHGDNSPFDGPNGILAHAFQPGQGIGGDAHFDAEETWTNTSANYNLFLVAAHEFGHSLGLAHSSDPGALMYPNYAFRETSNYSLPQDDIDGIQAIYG
Format: biochemical

| Compound | inhibition at 100 µM |
| --- | --- |
| CC(=O)c1ccc(NC(=O)CP(=O)(O)O)cc1 [compound 26, Disodium (2-((4-acetylphenyl)amino)-2-oxoethyl)phosphonate] | 36 ± 1% |

What follows are compounds tested against T4, HDAC-3 (Homo sapiens, UniProt O15379) (assay: fluorescence inhibitor screening kit). Conditions: read-out: Inhibition [%] at 100 μM compound^[a] / 5 a (thiol).
T4 construct: gene HDAC3
T4 sequence (O15379 whole entry): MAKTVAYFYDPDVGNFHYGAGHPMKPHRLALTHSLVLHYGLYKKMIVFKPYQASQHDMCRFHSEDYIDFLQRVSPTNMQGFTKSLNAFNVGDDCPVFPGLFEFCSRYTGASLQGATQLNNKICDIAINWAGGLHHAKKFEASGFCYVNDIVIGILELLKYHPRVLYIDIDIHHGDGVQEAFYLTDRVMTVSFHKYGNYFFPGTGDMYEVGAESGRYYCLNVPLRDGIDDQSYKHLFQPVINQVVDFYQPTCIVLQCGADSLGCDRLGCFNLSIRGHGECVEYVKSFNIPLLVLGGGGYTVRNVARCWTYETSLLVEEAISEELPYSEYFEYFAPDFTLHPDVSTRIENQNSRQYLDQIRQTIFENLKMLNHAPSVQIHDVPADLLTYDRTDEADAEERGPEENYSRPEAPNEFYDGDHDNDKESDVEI
Format: biochemical
Source text: fluorescence inhibitor screening kit on HDAC-3

| Compound | inhibition at 100 µM |
| --- | --- |
| CC(=O)c1ccc(NC(=O)CS)cc1 [5a, thiol 5 a] | 51 ± 7% |
